Results filed as inconclusive are left out. Activity calls are given as the source filed them.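 Rule for the calls: active = signal-lowering compounds whose fitted half-maximal concentration is at most ten times their highest tested dose; inconclusive = flat fit between -30 and -70%, or poor fit; inactive = flat within 30%, signal rising, or potency beyond limit.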
Target: POS-1 (Caenorhabditis elegans) binding to mex-3 RNA
Test: C. elegans POS-1 RNA interaction disruptors – biochemical, fluorescence polarization, cherry-picked samples, set 2, counter-screen for MEX-5 RNA-binding inhibitor project, dose response (AID 493130);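 note: POS-1 as maltose binding protein fusion made in E. coli with FITC RNA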
Conditions: POS-1/mex-3 RNA fluorescence polarization, 1 h; at 10 µM (top of the series)

| Compound | activity change, negative = inhibition |
| --- | --- |
| CCOC(=O)c1cnc2c(N=Nc3ccccc3)c(N)nn2c1N | inactive |
| CSc1ccc(/C=C/C(=O)c2ccc(NC(C)=O)cc2)cc1 | inactive |
| O=C(O)c1[nH]c2ccccc2c1C(c1cc(Br)ccc1O)c1c(C(=O)O)[nH]c2ccccc12 | inactive |
| CCCn1c(=N)c(C(=O)NC2CCCC2)cc2c(=O)n3cccc(C)c3nc21 | inactive |
| CCCCNc1c(N)n(CCCC)c(=O)[nH]c1=O | inactive |
| Nc1ccc2nc(CN3CCOCC3)[nH]c2c1 | inactive |
| O=C(Cc1csc(N2CCOCC2)n1)N/N=C/c1ccc(O)c(O)c1O | inactive |
| Cc1ccc(NC(=O)CCC(=O)NNC(=S)Nc2ccc(F)cc2)c(C)c1 | inactive |
| COc1ccccc1C(=O)NNC(=O)c1csc(N2CCOCC2)n1 | inactive |
| CCCOc1ccc(C2=CSC3=NCCN23)cc1[N+](=O)[O-] | inactive |
| Cc1cccc(/C=N/NC(=O)Cn2nnnc2N)n1 | inactive |
| O=[N+]([O-])c1ccc(O)c(C=Nc2ccc3c(c2)OCCO3)c1 | inactive |
| Cc1cc2c(C)nc(N/N=C/c3ccc([N+](=O)[O-])cc3)nc2o1 | inactive |
| CN1C(=O)/C(=C/c2cn(CC(=O)N3CCCCC3)c3ccccc23)c2ccccc21 | inactive |
| COc1ccc(-c2cn[nH]c2-c2ccc(OCC(=O)NN)cc2O)cc1 | inactive |
| CCOC(=O)c1c(NS(=O)(=O)c2ccccc2)n(CCCOC)c2nc3ccccc3nc12 | inactive |
| CC1=NOC(=O)/C1=C/c1ccc2c(c1)OCO2 | inactive |
| NC1=NC(=O)/C(=C\C=C\c2ccccc2)S1 | inactive |
| Cc1cccc(NC(=O)c2sc3nc4c(c(-c5ccco5)c3c2N)CCC4)c1 | inactive |
| CCOC(=O)CNc1nc2ccccc2n2c(C)nnc12 | inactive |
| CC(=O)Nc1ccc2c(c1)C(=O)N(c1cccc(C)c1)C2=O | inactive |
| N#Cc1cc2c(=O)n3ccccc3nc2n(CCCN2CCOCC2)c1=O | inactive |
| O=S(=O)(O)c1nc2ccccc2n1Cc1ccc(Cl)cc1Cl | inactive |
| Cc1ccc(C(=O)N/N=C\c2cc(Br)c(Br)o2)cn1 | inactive |

| Compound | activity change, negative = inhibition |
| --- | --- |
| CCN(Cc1ccccc1)c1ccc(/C=C(\C#N)c2ccccn2)cc1 | inactive |
| O=C(O)CCN1C(=O)/C(=C\c2ccc(OCc3ccccc3)c(OCc3ccccc3)c2)SC1=S | inactive |
| COc1ccc(N=C2S/C(=C\c3cc(C)n(C)c3C)C(=O)N2C)cc1 | inactive |
| COc1ccc(NC(=O)c2coc(C)c2)cc1 | inactive |
| CCOc1ccccc1C1NC(=O)NC(C)=C1C(=O)OCc1ccccc1 (configuration not stated) | inactive |
| Cn1ncc2c(NNC(=O)c3ccc(Cl)cc3Cl)ncnc21 | inactive |
| Cc1nc2cc(C(=O)O)ccc2n1-c1ccc(F)cc1F | inactive |
| Cc1nn(C)cc1C(=O)NNC(=S)Nc1ccccc1 | inactive |
| COC1=C(Nc2ccc(O)cc2)C(=O)c2ccccc2C1=O | inactive |
| CC1CN2C(c3ccc([N+](=O)[O-])cc3)=CSC2=N1 (configuration not stated) | inactive |
| COc1ccccc1CN1CC(C(=O)NCCN(C)CCc2ccccc2)CCC1=O (configuration not stated) | inactive |
| Cc1c(C(=O)O)c(C(=O)O)nc2ccc(N3CCOCC3)cc12 | inactive |
| Cc1cccn2c(=O)c3cc(C(=O)NCCCn4ccnc4)n(C)c3nc12 | inactive |
| O=C(O)c1ccc2cccnc2c1O | inactive |
| Cc1c(Br)c(=O)oc2c(Br)c(O)c(O)cc12 | inactive |
| O=C(O)c1ccc(N2C(=O)c3cccc4c(C(=O)O)ccc(c34)C2=O)cc1 | inactive |
| Cc1cc(C)c2c3c(sc2n1)C(c1ccccc1)C(C#N)=C(N)O3 (configuration not stated) | inactive |
| O=C(/C=C/c1ccc(O)c(O)c1)OC1C(O)CC(OC(=O)/C=C/c2ccc(O)c(O)c2)(C(=O)O)CC1O (configuration not stated) | inactive |
| COc1cccc(OCC(=O)NNC(=O)c2cnccn2)c1 | inactive |
| Oc1ccc(C2C=C(c3ccc(F)cc3)Nc3ncnn32)cc1 (configuration not stated) | inactive |
| O=c1[nH]c(=S)n(-c2ccc(Cl)cc2)c(O)c1C=Nc1ccc(N2CCOCC2)cc1 | inactive |
| COc1cc(/C=N/NC(=O)CNS(=O)(=O)c2ccc(C)cc2)cc(OC)c1OC | inactive |
| Nc1nonc1C(=O)N/N=C/c1cc(Br)ccc1O | inactive |

— PubChem BioAssay AID493130 (Broad Institute, 2011)
